Test results: paper PMC11785791, “Cryo-EM structure of the calcium-sensing receptor complexed with the kokumi substance γ-glutamyl-valyl-glycine” (Scientific Reports, 2025)
Numbering of substitutions follows the chain as printed. Like-named read-outs stand apart in the source and are kept apart here. *1 amine or outer side, *2 acyl side, *3 side chain or, on linkers, in order; H or OH if unused. Where a SMILES comes first, the peptide text is derived from it. γGlu = O=C(O)[CH](CCC(=O)[*:2])N[*:1]

Experiments:
human CaSR N102F mutant = biological target: T1, human CaSR N102F mutant (Homo sapiens, UniProt P41180, N102F); test: Calcium mobilization assay, CaSR N102F mutant; format: cell-based; details: for Response in calcium mobilization assay: in words, compared with wild type; for Emax: read-out: Emax (% of wild-type values)
T1 construct: (N); expressed in transfected cells; host or cells: PEAKrapid cells (ATCC), pcDNA 3.1, transient transfection
T1 sequence (P41180 20-1078 N102F): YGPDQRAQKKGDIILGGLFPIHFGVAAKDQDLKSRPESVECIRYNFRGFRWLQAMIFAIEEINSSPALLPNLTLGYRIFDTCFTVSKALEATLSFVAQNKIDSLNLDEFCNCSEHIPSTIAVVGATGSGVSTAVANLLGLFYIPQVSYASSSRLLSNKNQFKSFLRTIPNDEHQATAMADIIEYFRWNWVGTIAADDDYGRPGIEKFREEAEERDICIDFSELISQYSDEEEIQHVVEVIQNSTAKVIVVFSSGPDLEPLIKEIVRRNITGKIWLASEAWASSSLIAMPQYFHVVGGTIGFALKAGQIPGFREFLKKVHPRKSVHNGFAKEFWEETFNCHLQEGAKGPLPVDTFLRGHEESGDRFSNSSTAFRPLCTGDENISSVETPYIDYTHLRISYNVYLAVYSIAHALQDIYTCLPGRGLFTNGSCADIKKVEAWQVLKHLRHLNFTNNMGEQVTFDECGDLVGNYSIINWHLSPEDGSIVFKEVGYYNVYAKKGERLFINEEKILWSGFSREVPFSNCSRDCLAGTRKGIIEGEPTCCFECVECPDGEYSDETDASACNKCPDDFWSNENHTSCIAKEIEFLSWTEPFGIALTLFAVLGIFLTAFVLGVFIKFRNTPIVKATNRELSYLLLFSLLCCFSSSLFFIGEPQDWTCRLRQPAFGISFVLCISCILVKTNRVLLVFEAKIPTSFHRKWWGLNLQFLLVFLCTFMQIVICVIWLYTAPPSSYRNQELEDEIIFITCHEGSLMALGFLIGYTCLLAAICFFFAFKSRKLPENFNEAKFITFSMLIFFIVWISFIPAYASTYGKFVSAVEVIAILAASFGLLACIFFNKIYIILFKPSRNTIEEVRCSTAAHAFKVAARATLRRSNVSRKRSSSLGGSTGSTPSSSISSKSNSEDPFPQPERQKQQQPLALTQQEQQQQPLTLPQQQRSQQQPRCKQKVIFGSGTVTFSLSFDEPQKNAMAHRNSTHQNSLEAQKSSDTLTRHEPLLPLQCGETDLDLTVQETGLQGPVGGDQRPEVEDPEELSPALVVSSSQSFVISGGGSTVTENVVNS
Protocol: (§1) The CaSR receptor responsiveness was assessed by using PEAK^rapid cells (ATCC, Manassas, VA, USA) transiently transfected with the receptor DNA by the method reported by Kitajima et al.[6]. Briefly, human CaSR or its mutant cDNA with a signal sequence (MAFYSCCWVLLALTWHTSA) followed by FLAG-tag (DYKDDDDK) were inserted into pcDNA 3.1 expression vectors in Opti-MEM I medium (Thermo Fisher Scientific), mixed with FuGENE 6 (Roche), and poured onto PEAK^rapid cells grown at a submaximal concentration. After culturing for 24 h in 96-well plates, the cells were incubated with 5 µM Calcium-5 solution (Calcium-5 assay kit, Molecular Devices) for 45–60 min, and measurements were performed using a plate reader (FDSS/µCELL, Hamamatsu Photonics, Shizuoka, Japan) and its associated software. The activation of CaSR expressed in cells increases the intracellular Ca^2+ concentration, which is measured using a Ca^2+-sensitive dye. The binding of Ca^2+ to the Ca^2+-sensitive dye increases dye fluorescence, with excitation at 485 nm and emission at 525 nm. Test compounds were dissolved and administered in the assay buffer (146 mM NaCl, 1 mM MgSO4, 20 mM HEPES, 1 mM CaCl2, 2.5 mM probenecid, and 1.39 mM glucose, pH 7.4). Transiently transfected cells were challenged with compounds and compared with the vehicle alone and/or mock-transfected cells. The concentration dependence of the fluorescence intensity (influx of Ca^2+) was analyzed using the plate reader at 1 s intervals for 180 s. For the dose–response curve calculations, peak fluorescence responses after the addition of compounds were corrected for, normalized to the background fluorescence (ΔF/F = –F − F0)/F0), and baseline noise was subtracted. Dose–response curves were calculated by non-linear regression using GraphPad PRISM 8.0.

human CaSR E297A mutant = biological target: T2, human CaSR E297A mutant (Homo sapiens, UniProt P41180, E297A); test: Calcium mobilization assay, CaSR E297A mutant; format: cell-based; details: for Response in calcium mobilization assay: in words
T2 construct: (N); expressed in transfected cells; host or cells: PEAKrapid cells (ATCC), pcDNA 3.1, transient transfection
T2 sequence (P41180 20-1078 E297A): T1 sequence (P41180 20-1078 N102F) with F83N, E278A
Protocol: as §1

[1] = N102F mutant, mean ± s.e.m., n = 3, read-out: EC50

| Compound | Response in calcium mobilization assay (human CaSR N102F mutant; N102F mutant) | EC50 (human CaSR N102F mutant; [1]) | Emax (human CaSR N102F mutant; N102F mutant) | Response in calcium mobilization assay (human CaSR E297A mutant) | EC50 of N102F mutant relative to wild-type EC50 (human CaSR N102F mutant; 6.52 / 0.18, N102F vs wild type) | EC50 (human CaSR N102F mutant; N102F mutant, read-out: EC50 of the N102F mutant) | Emax (human CaSR N102F mutant) | Emax (% of wild-type values) (human CaSR N102F mutant; N102F mutant) | Emax (% of wild-type values) (human CaSR E297A mutant) | EC50 (human CaSR E297A mutant; mean ± s.e.m., n = 3) |
| --- | --- | --- | --- | --- | --- | --- | --- | --- | --- | --- |
| N[C@@H](Cc1ccc(O)cc1)C(=O)O [L-Tyr, L-tyrosine] | more active than the wild type | 2160 ± 400 µM | 132% | no response | – | – | – | – | – | – |
| CC(C)C(NC(=O)CCC(N)C(=O)O)C(=O)NCC(=O)O (stereo not drawn) [γ-EVG, γ-glutamyl-valyl-glycine] (γGlu-Val-Gly-OH; configuration not given here) | – | – | – | greatly reduced the response | approximately 36.2 fold | 6.52 ± 0.1 µM | 95.7% | – | – | – |
| [Ca+2].[Cl-].[Cl-] [CaCl2] | – | 2750 ± 210 µM | – | – | – | – | – | 87.8 % of WT | 86.0 % of WT | 6580 ± 300 µM |
| CC(C)[C@H](NC(=O)CC[C@H](N)C(=O)O)C(=O)O [γ-EV, γ-glutamyl-valine] | more active than the wild type | 4.48 ± 0.2 µM | – | no response | – | – | – | 194.8 % of WT | – | – |
